Measurements: paper PMC3835519 (Aquatic toxicology (Amsterdam, Netherlands), 2012)
Like-named read-outs stand apart in the source and are kept apart here.

Key:
[1] = type: in vitro ADME, Mus musculus
[2] = type: in vitro ADME, Pimephales promelas; conditions: all three fathead minnow subcellular fractions; significant = three times the background
[3] = type: in vitro ADME, Cyprinus carpio; conditions: S9 of smaller (likely younger, juvenile) carp population; mean ± SD, N = 3
[4] = type: in vitro ADME, Chelydra serpentina serpentina; conditions: snapping turtle S9; 120 min; 1 mg protein
[5] = system: purified porcine esterases; conditions: ref Roberts et al., 2011a, b; cited from earlier work

SMILES	TBMB metabolite peaks in chromatograms of incubations ([1]; mouse incubations, significant = three times the background)	TBMB metabolite peaks in chromatograms of incubations [2]	metabolic rate of TBB [3]	difference in TBB metabolism between age classes ([1]; S9, 4-month-old vs 2-month-old male mice)	metabolism of TBB (loss of parent vs heat-inactivated control) [4]	metabolism by esterases [5]
COC(=O)c1cc(Br)c(Br)c(Br)c1Br [TBMB, 2,3,4,5-tetrabromomethylbenzoate]	not significant	Significant peaks				
CCCCC(CC)COC(=O)c1cc(Br)c(Br)c(Br)c1Br (stereo not drawn) [TBB, 2-ethylhexyl 2,3,4,5-tetrabromobenzoate]			1.30 ± 0.62 pmoles TBB mg^−1 min^−1	No difference	not metabolized	rapidly metabolize
